Entries after “also recorded” stand apart in the source; their conditions may differ.
Test system: PMR or poly-myalga-rheumatica
Assay: Example 19B: patient with PMR (poly-myalga-rheumatica), pain relief
Assay type: in vivo, human
Conditions: for pain relief: PMR pain in neck, shoulders, hands, knees and ankles

| SMILES | pain relief | side-effects (human, in vivo) |
| --- | --- | --- |
| CC(=O)Nc1ccc(O)cc1 [Panamax] | not effective to relieve their pain | – |
| Cc1ccc(-c2cc(C(F)(F)F)nn2-c2ccc(S(N)(=O)=O)cc2)cc1 [CELEBREX] | proved to be effective; also recorded: effective as a painkiller | did not cause the same side-effects; also recorded: adverse effect on the medication they were taking following a heart attack |

From US10143716B2, “Pawpaw and/or peach derived composition” (PHOENIX EAGLE COMPANY PTY LTD, priority 2002, dated 2018)
